According to PubChem BioAssay (NCI):
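Values below derive from 48-hour exposures of cells grown in 96-well plates, with endpoints linearly interpolated between the two concentrations bracketing the appropriate inhibition level. Here, GI50 denotes the concentration required for 50% inhibition of growth. At the TGI there is no net growth.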

Legend:
Assay in all cases: NCI tumour cell line growth inhibition, 48 h
[1] = system: MDA-MB-231 breast
[2] = system: NCI/ADR-RES ovarian
[3] = system: T-47D breast
[4] = system: DU-145 prostate
[5] = system: SW-620 colon
[6] = system: A549 NSCLC
[7] = system: UACC-257 melanoma
[8] = system: BT-549 breast
[9] = system: ACHN renal
[10] = system: HCT-116 colon
[11] = system: SK-MEL-28 melanoma
[12] = system: EKVX NSCLC
[13] = system: MCF7 breast
[14] = system: HL-60(TB) leukemia
[15] = system: SN12C renal
[16] = system: OVCAR-4 ovarian
[17] = system: TK-10 renal
[18] = system: SF-539 CNS
[19] = system: SK-MEL-5 melanoma
[20] = system: K-562 leukemia
[21] = system: SK-MEL-2 melanoma
[22] = system: HOP-62 NSCLC
[23] = system: CCRF-CEM leukemia
[24] = system: RPMI-8226 leukemia
[25] = system: OVCAR-8 ovarian
[26] = system: MALME-3M melanoma
[27] = system: SF-295 CNS
[28] = system: HT29 colon
[29] = system: NCI-H460 lung
[30] = system: MDA-MB-435
[31] = system: M14 melanoma
[32] = system: OVCAR-3 ovarian
[33] = system: U251 CNS
[34] = system: COLO 205 colon
[35] = system: PC-3 prostate
[36] = system: SR leukemia
[37] = system: HOP-92 NSCLC
[38] = system: SK-OV-3 ovarian
[39] = system: NCI-H226 lung
[40] = system: KM12 colon
[41] = system: MOLT-4 leukemia
[42] = system: NCI-H23 lung
[43] = system: SNB-19 CNS
[44] = system: 786-0 renal
[45] = system: OVCAR-5 ovarian
[46] = system: UO-31 renal
[47] = system: SF-268 CNS
[48] = system: RXF 393 renal
[49] = system: LOX IMVI melanoma
[50] = system: HCC-2998 colon
[51] = system: HCT-15 colon
[52] = system: NCI-H522 lung
[53] = system: A498 renal
[54] = system: CAKI-1 renal

Question: How did the GI50 [1] turn out when `NC(=O)c1nc(-c2c(F)cccc2Cl)oc1Nc1ccc(C(=O)N2CCOCC2)cc1` was run?
Answer: 1.86 µM

Question: What about the TGI [1] of the same compound?
Answer: > 100 µM

Question: What about the GI50 [2] of the same compound?
Answer: 6.23 µM

Question: What about the TGI [2] of the same compound?
Answer: > 100 µM

Question: What about the GI50 [3] of the same compound?
Answer: 3.46 µM

Question: What about the TGI [3] of the same compound?
Answer: 62.7 µM

Question: And the GI50 [4]?
Answer: 11.9 µM

Question: And the TGI [4]?
Answer: > 100 µM

Question: What about the GI50 [5] of the same compound?
Answer: 0.703 µM

Question: What about the TGI [5] of the same compound?
Answer: > 100 µM

Question: And the GI50 [6]?
Answer: 0.936 µM

Question: What about the TGI [6] of the same compound?
Answer: > 100 µM

Question: What about the GI50 [7] of the same compound?
Answer: 11.9 µM

Question: And the TGI [7]?
Answer: 41.1 µM

Question: What about the GI50 [8] of the same compound?
Answer: 3.62 µM

Question: And the TGI [8]?
Answer: 54.6 µM

Question: What about the GI50 [9] of the same compound?
Answer: 2.41 µM

Question: And the TGI [9]?
Answer: > 100 µM

Question: And the GI50 [10]?
Answer: 1.36 µM

Question: What about the TGI [10] of the same compound?
Answer: 20 µM

Question: And the GI50 [11]?
Answer: 13.9 µM

Question: And the TGI [11]?
Answer: > 100 µM

Question: What about the GI50 [12] of the same compound?
Answer: 12.2 µM

Question: And the TGI [12]?
Answer: > 100 µM

Question: What about the GI50 [13] of the same compound?
Answer: 0.596 µM

Question: And the TGI [13]?
Answer: > 100 µM

Question: What about the GI50 [14] of the same compound?
Answer: 0.478 µM

Question: And the TGI [14]?
Answer: 31.7 µM

Question: What about the GI50 [15] of the same compound?
Answer: 2.12 µM

Question: And the TGI [15]?
Answer: > 100 µM

Question: What about the GI50 [16] of the same compound?
Answer: 28.4 µM

Question: What about the TGI [16] of the same compound?
Answer: > 100 µM

Question: And the GI50 [17]?
Answer: 2.33 µM

Question: What about the TGI [17] of the same compound?
Answer: 34.2 µM

Question: What about the GI50 [18] of the same compound?
Answer: 1.32 µM

Question: And the TGI [18]?
Answer: 5.16 µM

Question: What about the GI50 [19] of the same compound?
Answer: 10.5 µM

Question: What about the TGI [19] of the same compound?
Answer: 35.8 µM

Question: And the GI50 [20]?
Answer: 4.66 µM

Question: What about the TGI [20] of the same compound?
Answer: > 100 µM

Question: What about the GI50 [21] of the same compound?
Answer: 12.7 µM

Question: What about the TGI [21] of the same compound?
Answer: 58.6 µM

Question: What about the GI50 [22] of the same compound?
Answer: 2.08 µM

Question: And the TGI [22]?
Answer: > 100 µM

Question: And the GI50 [23]?
Answer: 0.4 µM

Question: And the TGI [23]?
Answer: > 100 µM

Question: And the GI50 [24]?
Answer: 7.44 µM

Question: And the TGI [24]?
Answer: 50.7 µM

Question: And the GI50 [25]?
Answer: 5.83 µM

Question: And the TGI [25]?
Answer: > 100 µM

Question: And the GI50 [26]?
Answer: 13 µM

Question: And the TGI [26]?
Answer: 55.6 µM

Question: And the GI50 [27]?
Answer: 1.61 µM

Question: And the TGI [27]?
Answer: > 100 µM

Question: What about the GI50 [28] of the same compound?
Answer: 1.62 µM

Question: And the TGI [28]?
Answer: > 100 µM

Question: What about the GI50 [29] of the same compound?
Answer: 0.805 µM

Question: And the TGI [29]?
Answer: > 100 µM

Question: And the GI50 [30]?
Answer: 2.03 µM

Question: What about the TGI [30] of the same compound?
Answer: > 100 µM

Question: And the GI50 [31]?
Answer: 13.7 µM

Question: What about the TGI [31] of the same compound?
Answer: > 100 µM

Question: And the GI50 [32]?
Answer: 10.3 µM

Question: What about the TGI [32] of the same compound?
Answer: > 100 µM

Question: What about the GI50 [33] of the same compound?
Answer: 2.25 µM

Question: And the TGI [33]?
Answer: > 100 µM

Question: What about the GI50 [34] of the same compound?
Answer: 1.64 µM

Question: And the TGI [34]?
Answer: 5.89 µM

Question: What about the GI50 [35] of the same compound?
Answer: 7.83 µM

Question: What about the TGI [35] of the same compound?
Answer: > 100 µM

Question: What about the GI50 [36] of the same compound?
Answer: 1 µM

Question: What about the TGI [36] of the same compound?
Answer: 84.7 µM

Question: What about the GI50 [37] of the same compound?
Answer: 0.262 µM

Question: And the TGI [37]?
Answer: 2.11 µM

Question: And the GI50 [38]?
Answer: 2.58 µM

Question: What about the TGI [38] of the same compound?
Answer: 75.2 µM

Question: And the GI50 [39]?
Answer: 0.266 µM

Question: What about the TGI [39] of the same compound?
Answer: > 100 µM

Question: And the GI50 [40]?
Answer: 0.326 µM

Question: What about the TGI [40] of the same compound?
Answer: > 100 µM

Question: What about the GI50 [41] of the same compound?
Answer: 2.03 µM

Question: And the TGI [41]?
Answer: 37.7 µM

Question: And the GI50 [42]?
Answer: 2.91 µM

Question: And the TGI [42]?
Answer: > 100 µM

Question: And the GI50 [43]?
Answer: 3 µM

Question: What about the TGI [43] of the same compound?
Answer: > 100 µM

Question: What about the GI50 [44] of the same compound?
Answer: 2.18 µM

Question: What about the TGI [44] of the same compound?
Answer: > 100 µM

Question: And the GI50 [45]?
Answer: 2.31 µM

Question: And the TGI [45]?
Answer: > 100 µM

Question: And the GI50 [46]?
Answer: 1.2 µM

Question: And the TGI [46]?
Answer: 25.8 µM

Question: And the GI50 [47]?
Answer: 3.07 µM

Question: What about the TGI [47] of the same compound?
Answer: > 100 µM

Question: And the GI50 [48]?
Answer: 0.964 µM

Question: And the TGI [48]?
Answer: 5.54 µM

Question: And the GI50 [49]?
Answer: 0.914 µM

Question: What about the TGI [49] of the same compound?
Answer: 5.61 µM

Question: And the GI50 [50]?
Answer: 14.8 µM

Question: What about the TGI [50] of the same compound?
Answer: > 100 µM

Question: What about the GI50 [51] of the same compound?
Answer: 2.2 µM

Question: And the TGI [51]?
Answer: > 100 µM

Question: And the GI50 [52]?
Answer: 2.11 µM

Question: And the TGI [52]?
Answer: 57.1 µM

Question: What about the GI50 [53] of the same compound?
Answer: 0.544 µM

Question: What about the TGI [53] of the same compound?
Answer: 3.28 µM

Question: And the GI50 [54]?
Answer: 1.44 µM

Question: And the TGI [54]?
Answer: > 100 µM
